In patent US20230255953A1, “USE OF ROLUPERIDONE IN PREVENTING RELAPSE IN SCHIZOPHRENIA PATIENTS” (Minerva Neurosciences, Inc., priority 2022, published 2023):

Tests used:
[1] = test system: patients with negative symptoms of schizophrenia; experiment: Integrated analysis (pooled ITT): rate of relapse and time to relapse; assay type: in vivo, human
Method: “Time to relapse” in the DB period is defined as the number of days from Day 1 to the date of early trial termination due to relapse. […] Treatment differences in time to relapse in the DB period were analyzed using a Cox-regression model with treatment group and Baseline PANSS total score as covariates. For the analysis of the OL period, this analysis was repeated to analyze treatment differences in time to relapse in the study. For the OL period analysis, patients who were not observed to relapse in the study were censored on the date on which they ended the study. Kaplan-Meier plots of time to relapse in the DB period, OL period, and in the study were generated.
In some embodiments, for any of the methods disclosed herein, a relapse refers to a patient who is terminated early during treatment (or a study trial) due to worsening of psychosis or an adverse event or generalized symptom in Table 1.
The Efficacy data from Study Nos. 1 and 2 were pooled. The majority of patients in the pooled ITT population completed the DB period (502 patients overall, 66.3%), with similar rates in each treatment group (placebo: 69.8%, 32 mg Roluperidone: 65.3%, and 64 mg Roluperidone: 63.8%) (Table 12). The majority (62.7%) of those who completed the DB period entered the OL period. The most common reason for discontinuation during the DB period among patients overall was withdrawal of consent (15.6%), followed by adverse events (7.3%) and lack of efficacy (5.4%) (Table 12). […] Approximately twice as many patients in the Roluperidone groups (32 mg: 8.5%; 64 mg: 9.1%) discontinued due to adverse events compared with patients in the placebo group (4.3%). More patients in the placebo group discontinued due to lack of efficacy (6.7%) than in the Roluperidone groups (32 mg: 4.4%; 64 mg: 5.1%). The low number of patients who discontinued due to lack of efficacy or withdrawal of consent probably reflects a low level of worsening of positive symptoms.

[2] = test system: patients with negative symptoms of schizophrenia; experiment: Study #1 (MIN-101C03): CGI-S and CGI-I; assay type: in vivo, human; details: Week 12 DB, ITT
Method: The CGI-S is a clinician-rated scale that is designed to rate the severity of the patient's illness at the time of assessment, including knowledge of the patient's history, psychosocial circumstances, symptoms, behavior, and the impact of the symptoms on the patient's ability to function relative to the clinician's past experience with patients who have the same diagnosis and similar improvement with treatment. Considering total clinical experience, a patient is assessed on severity of mental illness at the time of rating, where 1=normal (not at all ill); 2=borderline mentally ill; 3=mildly ill; 4=moderately ill; 5=markedly ill; 6=severely ill; or 7=extremely ill.
The CGI-S and CGI-I were assessed at the timepoints described in Table 7. The CGI-S and CGI-I were exploratory endpoints in Studies MIN-101C03 and MIN-101C07.
Phase 2b Study #1 (also referred to herein as “MIN-101C03”) was a Phase 2b, double-blind (“DB”), placebo-controlled, randomized, multicenter 12-week study to evaluate the efficacy, safety, and tolerability of Roluperidone in patients ≥18 years to ≤60 years with negative symptoms of schizophrenia, followed by a 24-week open-label (“OL”) extension. The primary objective of the study was to evaluate the efficacy of Roluperidone compared to placebo in improving the negative symptoms of schizophrenia as measured by the change from Baseline in the PANSS negative factor score of the PSM (“PANSS PSM”) over 12 weeks of treatment.
The study consisted of a pretreatment screening period of up to 28 days (including washout), a 12-week, DB, placebo-controlled period, and a 24-week OL period. Eligible patients (who were symptomatically stable for at least 3 months and had scores of at least 20 on the PANSS negative subscale score) were randomized in a 1:1:1 ratio to receive oral Roluperidone (a modified-release, “MR”, formulation) 32 mg QD, Roluperidone 64 mg QD, or placebo for 12 weeks. […] During the 24-week, OL treatment extension period, patients who were initially randomized to Roluperidone 32 mg or 64 mg continued on the same dose, while patients who were initially randomized to placebo crossed over to Roluperidone 32 mg or 64 mg in a 1:1 ratio.

[3] = Roluperidone Total (N = 502), DB period

## 1H-Isoindol-1-one,2-[ [1-[2-(4-fluorophenyl)-2-oxoethyl]-4-piperidinyl]methyl]-2,3-dihydro-, hydrochloride, hydrate (1:1:2) [Roluperidone]
[1]; 32 mg (N = 248), DB period
  Patients who experienced relapse (%): 8%
  Patients who experienced relapse (number): 19
[1]; 32 mg group, OL period
  Mean number of days to relapse: 234.8 days
[1]; 32 mg throughout, OL period
  Patients who experienced relapse (%): 7%
  Patients who experienced relapse (number): 10
[1]; 32 mg, DB period
  Days to relapse (Kaplan-Meier estimates), Mean: 128.3 days
  Days to relapse (Kaplan-Meier estimates), Median: 137.0 days
[1]; 64 mg (N = 254), DB period
  Patients who experienced relapse (%): 6%
  Patients who experienced relapse (number): 16
[1]; 64 mg group, OL period
  Mean number of days to relapse: 188.1 days
[1]; 64 mg throughout, OL period
  Patients who experienced relapse (%): 8%
  Patients who experienced relapse (number): 12
[1]; 64 mg, DB period
  Days to relapse (Kaplan-Meier estimates), Mean: 81.4 days
[1]; [3]
  Patients who experienced relapse (%): 7%
  Patients who experienced relapse (number): 35
[1]; Roluperidone Total, DB period
  Days to relapse (Kaplan-Meier estimates), Mean: 128.9 days
  Days to relapse (Kaplan-Meier estimates), Median: 137.0 days
[1]; placebo to 32 mg, OL period
  Patients who experienced relapse (%): 11%
  Patients who experienced relapse (number): 9
[1]; placebo to 64 mg, OL period
  Patients who experienced relapse (%): 1%
  Patients who experienced relapse (number): 1
[1]; total placebo to Roluperidone group, OL period
  Mean number of days to relapse: 256.3 days
[2]; 32 mg QD
  Change from Baseline: Clinical Global Impression of Severity (observed change): −0.40
  Effect Size vs Placebo: Clinical Global Impression of Improvement: 0.33
  Effect Size vs Placebo: Clinical Global Impression of Severity: 0.35
[2]; 64 mg QD
  Change from Baseline: Clinical Global Impression of Severity (observed change): −0.40 (0.1)
  Effect Size vs Placebo: Clinical Global Impression of Improvement: 0.57
  Effect Size vs Placebo: Clinical Global Impression of Severity: 0.43
